Results: US5888763A, “Peptides specific for the first Crk-SH3 domain” (The Rockefeller University, priority 1994, dated 1999)
Read-outs that look alike come from different tables or passages of the source. Where a SMILES comes first, the peptide text is derived from it. Where no end group is shown, it is not given here.

How the values were obtained:
v-Crk = biological target: T1, v-Crk (Avian sarcoma virus CT10, UniProt P05433); experiment: Tryptophan fluorescence titration of peptides with gst-v-Crk; assay type: binding; settings: Table 3; fluorescence measurements
T1 construct: made in house; host or cells: bacteria
Excerpt: (§1) Fluorescence Measurements. The fluorescence measurements were based predominantly on the interactions of the peptides with the aromatic residues, predominantly Trp (Yu et al., 1994, Cell 76:933) in the CrkSH3 domain.
(§2) Measurements were made with a Perkin-Elmer 760-40 fluorescence spectrophotometer at a excitation wavelength of 290 nm (slitwidth 2 nm) and an emission wavelength of 345 nm (slitwidth 17 nm). A mini-magnetic stirrer, CUV-O-STIR model 333 (HELLMA, Long Island, N.Y.) was used to mix the solution in a 1 cm square quartz fluorescence cell. A circulating water bath was used to maintain the sample temperature at 18° C. To obtain the titration curves for calculations of the binding constants, peptides from a stock solution of 5 mg/ml in TBS, 0.05% Tween-20 were added in small increments to a 1 ml volume of 0.5 μM SH3 domain in PBS, 1 mM Dithiothreitol (DTT).
(§3) Calculation of the binding constant. Since the concentration of the SH3-domain containing protein was low, the experimental data were fitted to the following equation:
(§4) F=Fmax *[peptide]/(Kd +[peptide]) (1)
(§5) Non-linear regression curve fitting using SigmaPlot (Jandel Scientific, San Rafael, Calif.) was carried out to fit the experimental data to equation (1) with Fmax and Kd as fitted parameters.

c-CrkSH3(1) = biological target: T2, c-CrkSH3(1) (Mus musculus, UniProt Q64010); experiment: Tryptophan fluorescence titration of peptides with gst-c-CrkSH3(1); assay type: binding, murine; settings: fluorescence measurements
T2 construct: made in house; host or cells: bacteria
Excerpt: as §1, §2, §3, §4, §5

Grb2 SH3 domain = biological target: T3, Grb2 SH3 domain (Homo sapiens, UniProt P62993); experiment: Tryptophan fluorescence titration of peptides with gst-Grb2; assay type: binding
T3 construct: made in house; host or cells: bacteria

CRKL = biological target: T4, CRKL (Homo sapiens, UniProt P46109); experiment: Tryptophan fluorescence titration of peptides with gst-CRKL; assay type: binding; settings: Table 3; fluorescence measurements
T4 construct: made in house; host or cells: bacteria
Excerpt: as §1, §2, §3, §4, §5

gst-CrkSH3SH3 = experiment: ELISA: biotinylated gst-CB fusion proteins binding to immobilized gst-CrkSH3SH3; settings: wells coated with 100 ng/well gst-CrkSH3SH3, biotinylated gst-CB fusion protein, read-out: apparent Kd (half saturation point)
Experimental: ELISA. gst-CB-1 to -4 proteins were biotinylated with Sulfosuccinimidyl 6-(biotinamido) hexanoate (Pierce) according to the manufacturers instructions. ELISA plates (Nunc) were coated with 100 ng/well of gst-Grb2, gst-CrkSH3SH3 or gst in 0.1M NaHCO3, pH 9.6, over night at room temperature (Jones et al., 1991, Mol. Cell Biol. 11:2641). Wells were then blocked with 2% BSA. After washing three times with blocking buffer (20 mM Tris-HCl, pH 7.5, 100 mM NaCl, 0.05% Tween-20, 1 mM EDTA, 0.2% BSA and 0.1% Ovalbumin), biotinylated gst-CB fusion proteins were added at the concentrations indicated in FIG. 6. To measure bound gst-CB fusion proteins, wells were incubated with horseradish Peroxidase coupled streptavidin (Gibco). A chromogenic substrate, 2,2'-azinobis(3-ethylbenzothiazoline-6-sulfonic acid) diaminonium salt (ABTS, Pierce) was then added and the OD was measured at 405 nm after 5 and 15 min and the 5 min OD value subtracted from the 15 min OD value to yield DOD405. In each experiment, the DOD405 at saturation of SH3 domain binding sites was considered 100% . DOD405 values for all other points within the same experiment were expressed as a percentage of this 100% value. Binding to gst alone was subtracted at each data point.

[1] = biological target: T5, gst-c-CrkSH3(1) (Example 2) (murine, UniProt Q64010); experiment: tryptophan fluorescence titration
[2] = biological target: T5, gst-c-CrkSH3(1) (Example 2); experiment: tryptophan fluorescence titration; remark: listed apart in the source
[3] = biological target: T5, gst-c-CrkSH3(1) (Example 2); experiment: tryptophan fluorescence titration; remark: listed apart in the source
[4] = biological target: T5, gst-c-CrkSH3(1) (Example 2); experiment: filter binding of 35S-gst-CrkSH3(1) to blotted gst-fusion peptides
[5] = biological target: T5, gst-c-CrkSH3(1) (Example 2); experiment: tryptophan fluorescence titration with gst-CrkSH3(1)
gst-v-Crk = gst-v-Crk (Avian sarcoma virus CT10 (Avian sarcoma …, UniProt P05433)); experiment: tryptophan fluorescence titration
[6] = biological target: T5, gst-c-CrkSH3(1) (Example 2); experiment: rounded value given in the summary of Example 3 for the peptide and Crk SH3-N; measured by fluorescence in Example 2
[7] = c-CrkSH3(1) Kd (μM), Table 2, gst-CrkSH3(1), 18° C
[8] = Table 2, gst-Grb2, fluorescence measurements, 18° C, read-out: Grb2SHD Kd

T3 sequence (P62993 whole entry, the tested form may be a part): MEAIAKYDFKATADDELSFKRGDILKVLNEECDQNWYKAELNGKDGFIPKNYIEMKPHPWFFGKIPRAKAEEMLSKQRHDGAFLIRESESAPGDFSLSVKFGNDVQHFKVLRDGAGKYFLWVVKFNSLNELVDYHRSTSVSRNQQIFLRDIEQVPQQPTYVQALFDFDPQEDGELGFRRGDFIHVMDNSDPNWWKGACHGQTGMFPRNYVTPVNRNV
Chain of gst-CrkSH3SH3 (Q64010 132-296 limits assumed): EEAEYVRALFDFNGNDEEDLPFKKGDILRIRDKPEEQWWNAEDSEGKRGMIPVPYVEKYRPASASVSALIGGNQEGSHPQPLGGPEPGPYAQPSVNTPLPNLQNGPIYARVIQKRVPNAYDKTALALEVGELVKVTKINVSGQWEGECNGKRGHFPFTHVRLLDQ
T4 sequence (P46109 whole entry, species assumed): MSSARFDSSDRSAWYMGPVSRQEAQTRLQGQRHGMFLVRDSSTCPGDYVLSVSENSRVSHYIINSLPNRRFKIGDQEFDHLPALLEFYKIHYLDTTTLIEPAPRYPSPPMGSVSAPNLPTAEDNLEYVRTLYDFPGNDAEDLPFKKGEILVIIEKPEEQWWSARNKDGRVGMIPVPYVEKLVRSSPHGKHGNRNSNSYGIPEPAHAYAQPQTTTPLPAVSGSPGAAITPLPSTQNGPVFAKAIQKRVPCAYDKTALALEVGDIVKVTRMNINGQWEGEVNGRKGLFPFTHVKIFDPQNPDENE
T1 sequence (P05433 whole entry): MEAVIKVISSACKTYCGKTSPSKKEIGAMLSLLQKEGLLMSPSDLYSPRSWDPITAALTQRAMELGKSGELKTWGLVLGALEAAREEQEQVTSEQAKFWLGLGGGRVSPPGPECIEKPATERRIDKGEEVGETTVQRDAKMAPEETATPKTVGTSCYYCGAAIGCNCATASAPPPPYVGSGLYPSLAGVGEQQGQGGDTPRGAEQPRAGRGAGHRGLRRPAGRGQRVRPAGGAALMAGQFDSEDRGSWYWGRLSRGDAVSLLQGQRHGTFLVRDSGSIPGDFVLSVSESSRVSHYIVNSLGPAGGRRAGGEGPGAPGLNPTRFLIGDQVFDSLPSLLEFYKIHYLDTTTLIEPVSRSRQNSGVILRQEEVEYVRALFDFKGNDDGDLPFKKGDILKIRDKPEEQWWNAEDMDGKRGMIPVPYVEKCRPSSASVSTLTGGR

CC(C)C[C@H](NC(=O)[C@H](C)NC(=O)[C@@H]1CCCN1C(=O)[C@@H]1CCCN1C(=O)[C@@H]1CCCN1)C(=O)N1CCC[C@H]1C(=O)N1CCC[C@H]1C(=O)N[C@@H](C)C(=O)N[C@@H](CCCCN)C(=O)N[C@@H](CCCNC(=N)N)C(=O)O (H-PPPALPPAKR-OH)
Kd (v-Crk): 248 ± 10 µM

CC(C)C[C@H](NC(=O)[C@@H]1CCCN1C(=O)[C@@H]1CCCN1C(=O)[C@H](CC(C)C)NC(=O)[C@H](C)NC(=O)[C@@H]1CCCN1C(=O)[C@@H]1CCCN1C(=O)[C@@H]1CCCN1)C(=O)N[C@@H](CCCCN)C(=O)N[C@@H](CCCNC(=N)N)C(=O)O (H-PPPALPPLKR-OH)
Kd (c-CrkSH3(1); gst-c-CrkSH3(1) Kd (μM), Table 3): 379 ± 1 µM
Kd (v-Crk): 437 ± 6 µM

CC(C)C[C@H](NC(=O)[C@@H]1CCCN1C(=O)[C@@H]1CCCN1C(=O)[C@@H]1CCCN1C(=O)[C@@H]1CCCN1)C(=O)N1CCC[C@H]1C(=O)N1CCC[C@H]1C(=O)N[C@@H](CCCCN)C(=O)N[C@@H](CCCCN)C(=O)N[C@@H](CCCNC(=N)N)C(=O)O [C3Gmut(1)] (H-PPPPLPPKKR-OH)
Kd (Grb2 SH3 domain): 203 ± 3 µM

CC(C)C[C@H](NC(=O)[C@H](C)NC(=O)[C@@H]1CCCN1C(=O)[C@@H]1CCCN1C(=O)[C@@H]1CCCN1)C(=O)N1CCC[C@H]1C(=O)N1CCC[C@H]1C(=O)N[C@@H](CCCNC(=N)N)C(=O)N[C@@H](CCCCN)C(=O)N[C@@H](CCCNC(=N)N)C(=O)O [C3Gmut(2)] (H-PPPALPPRKR-OH)
Kd (c-CrkSH3(1); [7]): 17.2 ± 0.4 µM
Kd (Grb2 SH3 domain): 23.5 ± 0.8 µM
Kd (CRKL): 11.2 ± 0.5 µM

CC(C)C[C@H](NC(=O)[C@H](C)NC(=O)[C@@H]1CCCN1C(=O)[C@@H]1CCCN1C(=O)[C@@H]1CCCN1)C(=O)N1CCC[C@H]1C(=O)N1CCC[C@H]1C(=O)N[C@@H](CCCCN)C(=O)N[C@@H](CCCCN)C(=O)N[C@@H](CCCNC(=N)N)C(=O)O [CB-1 peptide]
Kd (c-CrkSH3(1); Kd for the CrkSH3(1) domain): 1.89 ± 0.06 µM
Kd (Grb2 SH3 domain): 142 ± 3 µM
Kd (CRKL): 2.79 ± 0.1 µM

CC(C)[C@H](NC(=O)[C@@H]1CCCN1C(=O)[C@@H]1CCCN1C(=O)[C@@H]1CCCN1)C(=O)N1CCC[C@H]1C(=O)N1CCC[C@H]1C(=O)N[C@@H](CCCNC(=N)N)C(=O)N[C@@H](CCCNC(=N)N)C(=O)N[C@@H](CCCNC(=N)N)C(=O)N[C@@H](CCCNC(=N)N)C(=O)O [SOS-1, reference compound]
Kd (c-CrkSH3(1); [7]): 5.24 ± 0.16 µM
Kd (Grb2 SH3 domain): 3.54 ± 0.16 µM
Kd (CRKL): 10.5 ± 0.8 µM

CC[C@H](C)[C@H](NC(=O)[C@H](C)NC(=O)[C@@H]1CCCN1C(=O)[C@@H]1CCCN1)C(=O)N1CCC[C@H]1C(=O)N1CCC[C@H]1C(=O)N[C@@H](CCCNC(=N)N)C(=O)N[C@@H](CCC(N)=O)C(=O)N1CCC[C@H]1C(=O)N[C@H](C(=O)O)[C@@H](C)O [SOS-2] (H-PPAIPPRQPT-OH)
Kd (Grb2 SH3 domain; [8]): 42 ± 4 µM

CC(C)C[C@H](NC(=O)[C@@H]1CCCN1C(=O)[C@@H]1CCCN1)C(=O)N[C@@H](CC(C)C)C(=O)N1CCC[C@H]1C(=O)N1CCC[C@H]1C(=O)N[C@@H](CCCNC(=N)N)C(=O)N[C@@H](CCC(=O)O)C(=O)N1CCC[C@H]1C(=O)N[C@H](C(=O)O)C(C)C [SOS-3, reference compound] (H-PPLLPPREPV-OH)
Kd (c-CrkSH3(1); [7]): 206 ± 9 µM
Kd (Grb2 SH3 domain): 88 ± 3 µM

CC(C)[C@H](NC(=O)[C@@H]1CCCN1C(=O)[C@@H]1CCCN1C(=O)CN)C(=O)N1CCC[C@H]1C(=O)N1CCC[C@H]1C(=O)N[C@@H](CCCNC(=N)N)C(=O)N[C@@H](CCC(N)=O)C(=O)N[C@@H](CO)C(=O)N[C@H](C(=O)O)[C@@H](C)O [SOS-4, reference compound] (H-GPPVPPRQST-OH)
Kd (c-CrkSH3(1); Table 2, gst-CrkSH3(1), 18° C, read-out: c-CrkSH3(1) Kd): 663 ± 3 µM
Kd (Grb2 SH3 domain; [8]): 94 ± 5 µM

gst-CB-1: gst-fusion protein containing only the single proline-rich sequence CB-1 of C3G (SPPPALPPKKRQ; also: fused to GST)
Kd (gst-CrkSH3SH3): 0.0104 µM

gst-CB-2: gst-fusion protein containing only the single proline-rich sequence CB-2 of C3G (DTPPALPEKKRR; also: fused to GST)
Kd (gst-CrkSH3SH3): 0.027 µM

gst-CB-3: gst-fusion protein containing only the single proline-rich sequence CB-3 of C3G (EKPPPLPEKKNK; also: fused to GST)
Kd (gst-CrkSH3SH3): 0.0113 µM

gst-CB-4: gst-fusion protein containing only the single proline-rich sequence CB-4 of C3G (APPPALPPKQRQ; also: fused to GST)
Kd (gst-CrkSH3SH3): 0.00285 µM

PPPPLPPKKR [C3Gmut(1) peptide (PPPPLPPKKR)]
Kd [1]: 1.45 µM

PPAIPPRQPT [SOS-2 peptide (PPAIPPRQPT)]
Kd [1]: 127 µM

PPPALPPAKR [Lys-10Ala mutant peptide (PPPALPPAKR)]
fold decrease of binding against the wild type CB-1 peptide [2]: 10 fold
fold increase of Kd against the wild type CB-1 peptide [2]: 11.7 fold
fold reduction of binding affinity against the wild type CB-1 peptide [2]: 11.6 fold
Kd [3]: 22.1 µM

NSPPPALPPKKR (other, not fully specified) [gst-1-12 (GST-NSPPPALPPKKR)]
binding result [4]: binds

TPPALPEKKR [CB-2 peptide]
binding result [5]: binds

PPPALPPKAR [peptide PPPALPPKAR]
Kd [3]: 5.74 µM

PPPALPPKKR [CB-1 peptide (PPPALPPKKR)]
Kd (gst-v-Crk): 25.5 µM
Kd [6]: ~2 µM

PPPALPPKKA [peptide PPPALPPKKA]
Kd [3]: 9.3 µM
Kd (gst-v-Crk): 71.8 µM

PPPALPPKK (other) [gst-3-11 (CB-1 gst-fusion peptide without the C-terminal Arg-12)]
binding result [4]: no binding

PPPALPPKKK [peptide PPPALPPKKK]
Kd [3]: 5 µM
Kd (gst-v-Crk): 36.2 µM

PPPALPPRKR [C3Gmut(2) peptide (PPPALPPRKR)]
fold decrease of binding against the wild type CB-1 peptide [2]: 10 fold
fold increase of Kd against the wild type CB-1 peptide [2]: ~9 fold
Kd (gst-v-Crk): 23.5 µM

PPPALPPKQR [CB-4 peptide]
binding result [5]: binds

KPPPLPEKKQ [CB-3 peptide]
binding result [5]: binds

PPPVPPRRRR [SOS-1 peptide (PPPVPPRRRR)]
Kd (gst-v-Crk): 23.7 µM
